In ChEMBL document CHEMBL1128680, “6-substituted 2,4-diamino-5-methylpyrido[2,3-d]pyrimidines as inhibitors of dihydrofolate reductases from Pneumocystis carinii and Toxoplasma gondii and as antitumor agents” (J Med Chem, 1995):
pIC50: −log10 of the molar value.

Columns and labels:
Toxoplasma gondii = test: Inhibitory activity against cultured Toxoplasma gondii; type: functional, organism-based
[1] = (§1) Cytotoxic activity against IGROV1 Ovarian cancer cell line; type: functional; settings: Homo sapiens, IGROV-1
SR = test: Cytotoxic activity against SR Leukemia cell line; type: functional; settings: Homo sapiens
Dihydrofolate reductase [2] = target: T1, Dihydrofolate reductase (Pneumocystis carinii, UniProt P16184)
T1 sequence (P16184 whole entry): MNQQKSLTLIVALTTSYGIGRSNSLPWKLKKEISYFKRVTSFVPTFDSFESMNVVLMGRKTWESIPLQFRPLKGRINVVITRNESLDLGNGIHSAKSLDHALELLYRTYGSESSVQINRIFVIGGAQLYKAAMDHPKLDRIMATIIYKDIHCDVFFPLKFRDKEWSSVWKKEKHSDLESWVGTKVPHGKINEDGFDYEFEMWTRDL
Description: Inhibitory activity against Dihydrofolate reductase from Pneumocystis carinii

A549 = test: Cytotoxic activity against A549/ATCC non-small cell-lung cancer cell line; type: functional; settings: Homo sapiens
MDA-MB-435 = test: Cytotoxic activity against MDA-MB-435 Breast cancer cell line; type: functional; settings: Homo sapiens
NCI-H460 = test: Cytotoxic activity against NCI-H460 non-small cell-lung cancer cell line; type: functional; settings: Homo sapiens
U-251 = test: Cytotoxic activity against U251 CNS cancer cell line; type: functional; settings: Homo sapiens
MDA-N = test: Cytotoxic activity against MDA-N Breast cancer cell line; type: functional; settings: Homo sapiens
HCT-116 = test: Cytotoxic activity against HCT116 colon cancer cell line; type: functional; settings: Homo sapiens
UACC-62 = test: Cytotoxic activity against UACC-62 Melanoma cell line; type: functional; settings: Homo sapiens
MDA-MB-231 = test: Cytotoxic activity against MDA-MB-231/ATCC Breast cancer cell line; type: functional; settings: Homo sapiens
CCRF-CEM = test: Cytotoxic activity against CCRF-CEM Leukemia cell line; type: functional; settings: Homo sapiens
HCT-15 = test: Cytotoxic activity against HCT-15 colon cancer cell line; type: functional; settings: Homo sapiens
UACC-257 = test: Cytotoxic activity against UACC-257 Melanoma cell line; type: functional; settings: Homo sapiens
HT-29 = test: Cytotoxic activity against HT-29 colon cancer cell line; type: functional; settings: Homo sapiens
SF-295 = test: Cytotoxic activity against SF-295 CNS cancer cell line; type: functional; settings: Homo sapiens
SW-620 = test: Cytotoxic activity against SW-620 colon cancer cell line; type: functional; settings: Homo sapiens
DU-145 = test: Cytotoxic activity against DU-145 Prostate cancer cell line; type: functional; settings: Homo sapiens
MOLT-4 = test: Cytotoxic activity against MOLT-4 Leukemia cell line; type: functional; settings: Homo sapiens
SK-MEL-5 = test: Cytotoxic activity against SK-MEL-5 Melanoma cell line; type: functional; settings: Homo sapiens
LOX IMVI = test: Cytotoxic activity against LOXIMVI Melanoma cell line; type: functional; settings: Homo sapiens
K562 = test: Cytotoxic activity against K-562 Leukemia cell line; type: functional; settings: Homo sapiens
SF-268 = test: Cytotoxic activity against SF-268 CNS canser cell line; type: functional; settings: Homo sapiens
Dihydrofolate reductase [3] = target: T2, Dihydrofolate reductase (Rattus norvegicus, UniProt Q920D2)
T2 sequence (Q920D2 whole entry): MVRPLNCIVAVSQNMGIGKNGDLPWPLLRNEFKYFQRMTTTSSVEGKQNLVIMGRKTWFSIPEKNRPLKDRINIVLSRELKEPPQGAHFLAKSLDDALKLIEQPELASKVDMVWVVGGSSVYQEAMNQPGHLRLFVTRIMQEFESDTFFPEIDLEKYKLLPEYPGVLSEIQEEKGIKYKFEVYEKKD
Description: Inhibitory activity against Dihydrofolate reductase from rat liver

[4] = Ratio of the inhibitory concentrations against Toxoplasma gondii […] and Toxoplasma gondii DHFR.
PC-3 = test: Cytotoxic activity against PC-3 Prostate cancer cell line; type: functional; settings: Homo sapiens
NCI-H322M = test: Cytotoxic activity against NCI-H322M non-small cell-lung cancer cell line; type: functional; settings: Homo sapiens
ACHN = test: Cytotoxic activity against ACHN Renal cancer cell line; type: functional; settings: Homo sapiens
[5] = target: T3, Bifunctional dihydrofolate reductase-thymidylate synthase (Toxoplasma gondii, UniProt Q07422)
T3 sequence (Q07422 whole entry): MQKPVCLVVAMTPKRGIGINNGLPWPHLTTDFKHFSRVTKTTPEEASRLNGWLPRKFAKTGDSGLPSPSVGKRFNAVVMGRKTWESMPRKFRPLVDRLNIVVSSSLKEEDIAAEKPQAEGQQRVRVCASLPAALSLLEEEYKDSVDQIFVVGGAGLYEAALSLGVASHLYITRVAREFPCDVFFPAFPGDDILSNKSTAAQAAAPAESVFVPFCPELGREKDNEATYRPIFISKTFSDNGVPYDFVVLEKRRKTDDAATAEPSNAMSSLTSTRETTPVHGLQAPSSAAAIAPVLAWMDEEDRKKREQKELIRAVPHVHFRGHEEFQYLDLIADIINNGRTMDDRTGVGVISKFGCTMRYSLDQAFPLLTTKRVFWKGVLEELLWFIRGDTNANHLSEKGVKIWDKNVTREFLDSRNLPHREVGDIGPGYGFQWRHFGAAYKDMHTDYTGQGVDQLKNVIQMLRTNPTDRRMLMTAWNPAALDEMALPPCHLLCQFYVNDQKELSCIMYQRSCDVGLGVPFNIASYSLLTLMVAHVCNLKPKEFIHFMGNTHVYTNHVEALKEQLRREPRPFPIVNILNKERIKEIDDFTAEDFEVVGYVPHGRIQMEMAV
Description: Inhibitory activity against Dihydrofolate reductase from Toxoplasma gondii

786-0 = test: Cytotoxic activity against 786-0 Renal cancer cell line; type: functional; settings: Homo sapiens
IGROV-1 = test: as §1; type: functional; settings: Homo sapiens
Dihydrofolate reductase [6] = target: Dihydrofolate reductase (Lactobacillus casei, UniProt P00381)
Sequence of Dihydrofolate reductase (Lactobacillus casei, UniProt P00381) (P00381 whole entry): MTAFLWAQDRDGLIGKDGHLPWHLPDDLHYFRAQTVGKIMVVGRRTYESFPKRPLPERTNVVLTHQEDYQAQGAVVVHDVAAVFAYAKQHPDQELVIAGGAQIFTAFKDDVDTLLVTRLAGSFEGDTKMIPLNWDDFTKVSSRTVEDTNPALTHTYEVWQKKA
Description: Inhibitory activity against Dihydrofolate reductase from Lactobacillus casei

**Q.** With `COc1cc(N(C)Cc2cnc3nc(N)nc(N)c3c2C)cc(OC)c1OC` as the compound, how does the pIC50 (Toxoplasma gondii) read?
**A.** The pIC50 was 5.33.

**Q.** Which results are given for `COc1ccc(NCc2cnc3nc(N)nc(N)c3c2C)c2ccccc12`?
**A.** GI50 [1]: 86.8 nM; GI50 (SR): 76 nM; pIC50 (Dihydrofolate reductase [2]): 7.39; GI50 (A549): 38.4 nM; GI50 (MDA-MB-435): 62.1 nM; GI50 (NCI-H460): 49.1 nM; GI50 (U-251): 72.9 nM; GI50 (MDA-N): 42.5 nM; GI50 (HCT-116): 11.7 nM; GI50 (UACC-62): 43.2 nM; GI50 (MDA-MB-231): 18.8 nM; GI50 (CCRF-CEM): 76.6 nM; GI50 (HCT-15): 45.6 nM; GI50 (UACC-257): 86.8 nM; GI50 (HT-29): 72.3 nM; GI50 (SF-295): 83.2 nM; GI50 (SW-620): 79.6 nM; GI50 (DU-145): 52.1 nM; GI50 (MOLT-4): 91.1 nM; GI50 (SK-MEL-5): 57.8 nM; GI50 (LOX IMVI): 69.4 nM; GI50 (K562): 16.1 nM; GI50 (SF-268): 60.4 nM; pIC50 (Dihydrofolate reductase [3]): 7.27; Ratio [4]: 2; GI50 (PC-3): 79.8 nM; pIC50 (Toxoplasma gondii): 7.40; GI50 (NCI-H322M): 85 nM; GI50 (ACHN): 47.9 nM; pIC50 [5]: 7.64; GI50 (786-0): 55 nM

**Q.** Which results are given for `COc1ccc(OC)c(N(C)Cc2cnc3nc(N)nc(N)c3c2C)c1`?
**A.** GI50 (IGROV-1): 5450 nM; GI50 (SR): 7450 nM; pIC50 (Dihydrofolate reductase [2]): 6.67; GI50 (A549): 732 nM; GI50 (MDA-MB-435): 4180 nM; GI50 (U-251): 4210 nM; GI50 (MDA-N): 6620 nM; GI50 (HCT-116): 3970 nM; GI50 (UACC-62): 1150 nM; GI50 (MDA-MB-231): 764 nM; GI50 (CCRF-CEM): 7150 nM; GI50 (HCT-15): 2540 nM; GI50 (UACC-257): 20000 nM; GI50 (HT-29): 3220 nM; GI50 (SF-295): 3410 nM; GI50 (SW-620): 5040 nM; GI50 (DU-145): 2710 nM; GI50 (MOLT-4): 3160 nM; GI50 (SK-MEL-5): 1560 nM; GI50 (LOX IMVI): 5820 nM; GI50 (K562): 499 nM; GI50 (SF-268): 5910 nM; pIC50 (Dihydrofolate reductase [3]): 6.39; Ratio [4]: 35; GI50 (PC-3): 783 nM; pIC50 (Toxoplasma gondii): 5.98; GI50 (NCI-H322M): 5560 nM; GI50 (ACHN): 3750 nM; pIC50 [5]: 7.52; GI50 (786-0): 843 nM

**Q.** With `CCN(Cc1cnc2nc(N)nc(N)c2c1C)c1cc(OC)c(OC)c(OC)c1` as the compound, how does the pIC50 (Dihydrofolate reductase [2]) read?
**A.** The pIC50 was 7.30.

**Q.** And the pIC50 (Dihydrofolate reductase [3])?
**A.** The pIC50 was 7.98.

**Q.** And the pIC50 [5]?
**A.** The pIC50 was 8.11.

**Q.** With `COc1ccc(NCc2cnc3nc(N)nc(N)c3c2C)cc1OC` as the compound, how does the pIC50 (Dihydrofolate reductase [2]) read?
**A.** Its pIC50 is 7.36.

**Q.** And the pIC50 (Dihydrofolate reductase [6])?
**A.** Its pIC50 is 7.08.

**Q.** And the pIC50 (Dihydrofolate reductase [3])?
**A.** The pIC50 was 8.12.

**Q.** What about the pIC50 [5] of the same compound?
**A.** Its pIC50 is 8.06.

**Q.** With `COc1ccc(N(C)Cc2cnc3nc(N)nc(N)c3c2C)c(OC)c1` as the compound, how does the pIC50 (Dihydrofolate reductase [2]) read?
**A.** The pIC50 was 6.29.

**Q.** And the pIC50 (Dihydrofolate reductase [3])?
**A.** Its pIC50 is 6.48.

**Q.** And the Ratio [4]?
**A.** The Ratio was 46.

**Q.** What about the pIC50 (Toxoplasma gondii) of the same compound?
**A.** The pIC50 was 5.76.

**Q.** And the pIC50 [5]?
**A.** The pIC50 was 7.42.

**Q.** What does the source list for `COc1ccc(OC)c(NCc2cnc3nc(N)nc(N)c3c2C)c1`?
**A.** pIC50 (Dihydrofolate reductase [2]): 7.34; pIC50 (Dihydrofolate reductase [6]): 7.41; pIC50 (Dihydrofolate reductase [3]): 6.89; Ratio [4]: 94; pIC50 (Toxoplasma gondii): 5.82; pIC50 [5]: 7.80

**Q.** With `COc1cc(NCc2ccc3nc(N)nc(N)c3c2C)cc(OC)c1OC` [TRIMETREXATE] as the compound, how does the pIC50 (Dihydrofolate reductase [6]) read?
**A.** The pIC50 was 7.57.
